Assay results reported in patent US20260216164A1, “INDOLE COMPOUND DECOMPOSING IKZF2, AND USE THEREOF” (KOREA RESEARCH INSTITUTE OF CHEMICAL TECHNOLOGY, priority 2023, published 2026).

Biological target: Helios (IKZF2) (Homo sapiens, UniProt Q96SW2+Q9UKS7)
Test: Screening of Helios protein degraders using Nano-Glo HiBiT cell line (HiBiT-IKZF2)
Type: cell-based
Settings: 6 hours, HiBiT-Helios knock-in Jurkat cells; for remaining activity at 1 µM: compound 1 μM, read-out: HiBiT-IKZF2 Residual amount of Helios (%) 1 μM; for remaining activity at 10 µM: compound 10 μM, read-out: HiBiT-IKZF2 Residual amount of Helios (%) 10 μM
Description: To observe intracellular degradation of Helios, the Nano-Glo HiBiT detection system (Promega) was employed. […] The cells expressing Helios fused with HiBiT were validated using the Nano-Glo HiBiT detection system (Promega) according to a predetermined protocol, isolated as single cells, and cultured in complete medium to establish a monoclonal cell line.
After 6 hours, the Nano-Glo HiBiT detection reagent was added to each well in an equal volume to the cell culture medium and incubated at room temperature for 10 minutes. Following incubation, the HiBiT luminescence signal was measured using a microplate reader (Perkin Elmer).

Helios (IKZF2), sequence (Q9UKS7 whole entry): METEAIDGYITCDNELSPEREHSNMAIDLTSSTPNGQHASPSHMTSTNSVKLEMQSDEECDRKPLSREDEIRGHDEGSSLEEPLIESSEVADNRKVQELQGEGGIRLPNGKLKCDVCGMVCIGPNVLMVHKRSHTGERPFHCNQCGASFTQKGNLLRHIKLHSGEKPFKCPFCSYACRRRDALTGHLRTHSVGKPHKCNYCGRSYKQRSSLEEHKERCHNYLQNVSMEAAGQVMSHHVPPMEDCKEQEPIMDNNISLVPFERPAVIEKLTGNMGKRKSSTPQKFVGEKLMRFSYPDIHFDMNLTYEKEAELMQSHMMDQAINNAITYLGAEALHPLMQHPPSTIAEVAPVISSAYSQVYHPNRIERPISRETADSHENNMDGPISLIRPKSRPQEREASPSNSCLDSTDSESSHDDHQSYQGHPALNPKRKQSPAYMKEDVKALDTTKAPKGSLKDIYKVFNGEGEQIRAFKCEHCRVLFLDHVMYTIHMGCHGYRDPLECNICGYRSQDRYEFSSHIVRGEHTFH
Helios (IKZF2), sequence (Q96SW2 whole entry): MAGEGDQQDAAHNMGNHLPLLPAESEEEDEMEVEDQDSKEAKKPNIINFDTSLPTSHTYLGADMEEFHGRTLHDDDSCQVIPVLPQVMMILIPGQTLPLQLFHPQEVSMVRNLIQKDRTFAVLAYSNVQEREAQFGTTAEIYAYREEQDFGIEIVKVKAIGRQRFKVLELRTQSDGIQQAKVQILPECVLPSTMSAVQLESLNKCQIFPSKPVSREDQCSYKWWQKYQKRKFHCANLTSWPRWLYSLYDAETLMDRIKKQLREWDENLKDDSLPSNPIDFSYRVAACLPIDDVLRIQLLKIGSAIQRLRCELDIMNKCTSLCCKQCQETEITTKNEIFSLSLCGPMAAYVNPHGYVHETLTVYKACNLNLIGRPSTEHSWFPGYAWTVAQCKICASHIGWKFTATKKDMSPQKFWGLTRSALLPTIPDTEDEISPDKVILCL
Helios (IKZF2), sequence (Q16531 whole entry partner): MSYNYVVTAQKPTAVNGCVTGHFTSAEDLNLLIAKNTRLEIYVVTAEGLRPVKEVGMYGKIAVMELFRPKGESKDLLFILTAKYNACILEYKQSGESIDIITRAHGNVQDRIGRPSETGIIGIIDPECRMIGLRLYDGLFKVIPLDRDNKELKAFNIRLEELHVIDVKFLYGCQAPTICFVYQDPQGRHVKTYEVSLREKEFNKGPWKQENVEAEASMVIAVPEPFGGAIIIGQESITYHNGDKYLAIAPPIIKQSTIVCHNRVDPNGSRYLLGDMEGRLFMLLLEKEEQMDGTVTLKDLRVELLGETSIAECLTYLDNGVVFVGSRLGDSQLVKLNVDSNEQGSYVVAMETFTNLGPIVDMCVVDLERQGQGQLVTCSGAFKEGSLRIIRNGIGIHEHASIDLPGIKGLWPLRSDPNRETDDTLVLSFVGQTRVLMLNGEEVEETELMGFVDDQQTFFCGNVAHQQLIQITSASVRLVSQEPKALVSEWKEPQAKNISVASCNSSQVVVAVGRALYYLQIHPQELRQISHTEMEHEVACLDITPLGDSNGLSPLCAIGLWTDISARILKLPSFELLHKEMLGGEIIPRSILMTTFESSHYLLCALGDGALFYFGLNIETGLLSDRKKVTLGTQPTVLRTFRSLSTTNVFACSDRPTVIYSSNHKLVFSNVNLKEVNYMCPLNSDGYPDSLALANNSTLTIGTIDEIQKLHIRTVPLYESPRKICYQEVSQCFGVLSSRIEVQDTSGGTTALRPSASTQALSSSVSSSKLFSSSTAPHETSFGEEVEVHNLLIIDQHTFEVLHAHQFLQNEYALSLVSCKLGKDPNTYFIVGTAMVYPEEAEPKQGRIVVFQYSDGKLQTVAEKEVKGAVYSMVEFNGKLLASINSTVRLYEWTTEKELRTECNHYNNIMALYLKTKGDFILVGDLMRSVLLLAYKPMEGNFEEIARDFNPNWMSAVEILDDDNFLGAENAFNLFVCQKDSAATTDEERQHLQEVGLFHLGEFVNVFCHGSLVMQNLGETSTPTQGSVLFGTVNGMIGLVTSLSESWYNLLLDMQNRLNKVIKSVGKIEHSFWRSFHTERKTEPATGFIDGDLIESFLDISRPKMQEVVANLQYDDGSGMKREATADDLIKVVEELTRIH

| SMILES | remaining activity at 1 µM | remaining activity at 10 µM |
| --- | --- | --- |
| COc1ccc2c(CN3CCOCC3)c(C(=O)N3CCC(c4ccc5c(c4)CN(C4CCC(=O)NC4=O)C5=O)CC3)[nH]c2c1 (stereo not drawn) [Compound 110, 3-(5-(1-(6-methoxy-3-(morpholinomethyl)-1H-indole-2-carbonyl)piperidin-4-yl)-1-oxoinsoindolin-2-yl)piperidine-2,6-dione] | 14.2% |  |
| Nc1ccc2cc(C(=O)N3CCC(c4ccc5c(c4)CN(C4CCC(=O)NC4=O)C5=O)CC3)[nH]c2c1 (stereo not drawn) [Compound 32, 3-(5-(1-(6-amino-1H-indole-2-carbonyl)piperidin-4-yl)-1-oxoinsoindolin-2-yl)piperidine-2,6-dione] | 62.1% | 57.3% |
| Cc1c(C(=O)N2CCC(N3CCC(c4ccc5c(c4)CN(C4CCC(=O)NC4=O)C5=O)CC3)CC2)[nH]c2cc(Cl)ccc12 (stereo not drawn) [Compound 62, 3-(5-(1-(6-chloro-3-methyl-1H-indole-2-carbonyl)-[1,4′-bipiperidin]-4-yl)-1-oxoinsoindolin-2-yl)piperidine-2,6-dione] |  | 23.8% |
| Cc1c(C(=O)N2CCC(c3ccc4c(c3)CN(C3CCC(=O)NC3=O)C4=O)CC2)[nH]c2cc(N)ccc12 (stereo not drawn) [Compound 61, 3-(5-(1-(6-amino-3-methyl-1H-indole-2-carbonyl)piperidin-4-yl)-1-oxoinsoindolin-2-yl)piperidine-2,6-dione] |  | 35% |
| Cc1c(C(=O)N2CCC(c3ccc4c(c3)CN(C3CCC(=O)NC3=O)C4=O)CC2)[nH]c2cc(Cl)c(CN3CCNCC3)cc12 (stereo not drawn) [Compound 109, 3-(5-(1-(6-chloro-3-methyl-5-(piperazin-1-ylmethyl)-1H-indole-2-carbonyl)piperidin-4-yl)-1-oxoinsoindolin-2-yl)piperidine-2,6-dione dichloride] | 38.4% | 24.6% |
| COc1ccc2[nH]c(C(=O)N3CCC(c4ccc5c(c4)CN(C4CCC(=O)NC4=O)C5=O)CC3)cc2c1 (stereo not drawn) [Compound 10, 3-(5-(1-(5-methoxy-1H-indole-2-carbonyl)piperidin-4-yl)-1-oxoinsoindolin-2-yl)piperidine-2,6-dione] | 94.6% | 97.3% |
| O=Cc1c(C(=O)N2CCC(c3ccc4c(c3)CN(C3CCC(=O)NC3=O)C4=O)CC2)[nH]c2ccccc12 (stereo not drawn) [Compound 35, 2-(4-(2-(2,6-dioxopiperidin-3-yl)-1-oxoindolin-5-yl)piperidine-1-carbonyl)-1H-indole-3-carbaldehyde] | 76.6% | 52.3% |
| COc1ccc2c(C)c(C(=O)N3CCC(c4ccc5c(c4)CN(C4CCC(=O)NC4=O)C5=O)CC3)[nH]c2c1 (stereo not drawn) [Compound 42, 3-(5-(1-(6-methoxy-3-methyl-1H-indole-2-carbonyl)piperidin-4-yl)-1-oxoinsoindolin-2-yl)piperidine-2,6-dione] | 13.9% | 13% |
| O=Cc1c(C(=O)N2CCC(c3ccc4c(c3)CN(C3CCC(=O)NC3=O)C4=O)CC2)[nH]c2cc(Cl)ccc12 (stereo not drawn) [Compound 81, 6-chloro-2-(4-(2-(2,6-dioxopiperidin-3-yl)-1-oxoindolin-5-yl)piperidine-1-carbonyl)-1H-indole-3-carbaldehyde] |  | 28.7% |
| Cc1c(C(=O)N2CCC(c3ccc4c(c3)C(=O)N(C3CCC(=O)NC3=O)C4=O)CC2)[nH]c2cc(Cl)ccc12 (stereo not drawn) [Compound 92, 5-(1-(6-chloro-3-methyl-1H-indole-2-carbonyl)piperidin-4-yl)-2-(2,6-dioxopiperidin-3-yl)isoindoline-1,3-dione] |  | 36.1% |
| Cc1c(C(=O)N2CCC(=Cc3ccc4c(c3)CN(C3CCC(=O)NC3=O)C4=O)CC2)[nH]c2cc(Cl)ccc12 (stereo not drawn) [Compound 44, 3-(5-((1-(6-chloro-3-methyl-1H-indole-2-carbonyl)piperidin-4-ylidene)methyl)-1-oxoinsoindolin-2-yl)piperidine-2,6-dione] | 69.7% | 61.1% |
| O=C1CCC(N2Cc3cc(C4CCN(C(=O)c5cc6cc(F)ccc6[nH]5)CC4)ccc3C2=O)C(=O)N1 (stereo not drawn) [Compound 17, 3-(5-(1-(5-fluoro-1H-indole-2-carbonyl)piperidin-4-yl)-1-oxoinsoindolin-2-yl)piperidine-2,6-dione] | 95% | 96.6% |
| O=C1CCC(N2Cc3cc(C4CCN(C(=O)c5cc6ccccc6[nH]5)CC4)ccc3C2=O)C(=O)N1 (stereo not drawn) [Compound 9, 3-(5-(1-(1H-indole-2-carbonyl)piperidin-4-yl)-1-oxoinsoindolin-2-yl)piperidine-2,6-dione] | 94.5% | 99.5% |
| COc1cccc2cc(C(=O)N3CCC(c4ccc5c(c4)CN(C4CCC(=O)NC4=O)C5=O)CC3)[nH]c12 (stereo not drawn) [Compound 12, 3-(5-(1-(7-methoxy-1H-indole-2-carbonyl)piperidin-4-yl)-1-oxoinsoindolin-2-yl)piperidine-2,6-dione] | 89.9% | 94.1% |
| O=C1CCC(N2Cc3cc(C4CCN(C(=O)c5cc6ccc(C(F)(F)F)cc6[nH]5)CC4)ccc3C2=O)C(=O)N1 (stereo not drawn) [Compound 41, 3-(1-oxo-5-(1-(6-(trifluoromethyl)-1H-indole-2-carbonyl)piperidin-4-yl)isoindolin-2-yl)piperidine-2,6-dione] | 41.7% | 38.5% |
| Cc1c(C(=O)N2CCC(c3ccc4c(c3F)CN(C3CCC(=O)N(COC(=O)C(C)(C)C)C3=O)C4=O)CC2)[nH]c2cc(Cl)ccc12 (stereo not drawn) [Compound 123, (3-(5-(1-(6-chloro-3-methyl-1H-indole-2-carbonyl)piperidin-4-yl)-4-fluoro-1-oxoinsoindolin-2-yl)-2,6-dioxopiperidin-1-yl)methyl pivalate] |  | 14.3% |
| Cc1c(C(=O)N2CCC(c3ccc4c(c3)CN(C3CCC(=O)NC3=O)C4=O)C2)[nH]c2cc(Cl)ccc12 (stereo not drawn) [Compound 67, 3-(5-(1-(6-chloro-3-methyl-1H-indole-2-carbonyl)pyrrolidin-3-yl)-1-oxoinsoindolin-2-yl)piperidine-2,6-dione] |  | 78.7% |
| Cc1c(C(=O)N2CCC(c3ccc4c(c3)CN(C3CCC(=O)NC3=O)C4=O)CC2)[nH]c2cc(Cl)c(Br)cc12 (stereo not drawn) [Compound 83, 3-(5-(1-(5-bromo-6-chloro-3-methyl-1H-indole-2-carbonyl)piperidin-4-yl)-1-oxoinsoindolin-2-yl)piperidine-2,6-dione] |  | 49% |
| Cc1c(C(=O)N2CCC(n3cc(-c4ccc5c(c4)CN(C4CCC(=O)NC4=O)C5=O)nn3)CC2)[nH]c2cc(Cl)ccc12 (stereo not drawn) [Compound 66, 3-(5-(1-(1-(6-chloro-3-methyl-1H-indole-2-carbonyl)piperidin-4-yl)-1H-1,2,3-triazol-4-yl)-1-oxoinsoindolin-2-yl)piperidine-2,6-dione] |  | 87.8% |
| COc1ccc2cc(C(=O)Nc3ccc4c(c3)CN(C3CCC(=O)NC3=O)C4=O)ccc2c1 (stereo not drawn) [Comparative Substance 4, N-(2-(2,6-dioxopiperidin-3-yl)-1-oxoindolin-5-yl)-6-methoxy-2-naphthamide, reference compound] | 58% | 56.2% |
| O=C1CCC(N2Cc3cc(C=C4CCN(C(=O)c5cc6ccc(Cl)cc6[nH]5)CC4)ccc3C2=O)C(=O)N1 (stereo not drawn) [Compound 26, 3-(5-((1-(6-chloro-1H-indole-2-carbonyl)piperidin-4-ylidene)methyl)-1-oxoinsoindolin-2-yl)piperidine-2,6-dione] | 96% | 97.6% |
